Patent EP4793279A1, “COMPOUND AND METHOD FOR TREATING AND/OR […] KERATOSIS” (priority 2023, dated 2025)
Like-named read-outs stand apart in the source and are kept apart here.

What was measured:
[1] = for Labeled amount / Related substances Impurity A / Related substances Impurity B / Related substances Impurity C / Related substances Impurity D / Related substances Impurity E / Related substances Impurity F / Related substances RRT0.73 / Related substances RRT1.10 / Related substances RRT2.18 / Related substances Total impurities: mixed 1:5 with CMC-Na
[2] = test system: human liver cancer HepG2 cells; settings: cited from earlier work
[3] = 20 °C
[4] = for plasma drug concentrations above the LLOQ: topical gel, dose levels 1-5, LLOQ 0.02 ng/mL
[5] = in water
[6] = test system: experimental autoimmune encephalomyelitis (EAE); settings: in vivo; cited from earlier work
[7] = molecular target: beclin1 (Homo sapiens, UniProt Q14457); settings: targets beclin1; cited from earlier work
beclin1, sequence (Q14457 whole entry, species assumed): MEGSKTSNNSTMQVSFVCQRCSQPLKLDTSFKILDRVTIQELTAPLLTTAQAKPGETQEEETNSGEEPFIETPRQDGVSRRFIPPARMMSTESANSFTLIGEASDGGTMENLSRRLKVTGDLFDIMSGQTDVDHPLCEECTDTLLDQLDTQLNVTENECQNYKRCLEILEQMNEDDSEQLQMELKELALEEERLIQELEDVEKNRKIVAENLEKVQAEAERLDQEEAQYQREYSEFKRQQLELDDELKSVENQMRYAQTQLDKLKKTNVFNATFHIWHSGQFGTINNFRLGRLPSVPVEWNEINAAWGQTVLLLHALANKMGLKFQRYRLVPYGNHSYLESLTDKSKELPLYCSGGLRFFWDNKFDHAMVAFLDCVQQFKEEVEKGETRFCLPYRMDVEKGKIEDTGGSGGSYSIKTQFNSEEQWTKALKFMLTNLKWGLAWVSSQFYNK

[8] = High humidity for 10 days (RH 90%±5%)
[9] = High temperature for 10 days (60°C±2°C)

For `CO[C@H]1[C@H](O)[C@H](O[C@H]2CC[C@@]3(C)[C@H](CC[C@@H]4[C@@H]3CC[C@]3(C)[C@@H](C5=CC(=O)OC5)CC[C@]43O)C2)O[C@@H](C)[C@@H]1O` [17β-neriifolin], which “stability of the combination” value ([1]; combination with sodium carboxymethyl cellulose compared with combination with Carbomer) is on record?
The value was “significantly superior”.

What about the “impact on the related substances and drug content” value ([1]; combined 1:5 with sodium carboxymethyl cellulose, high temperature, high humidity, illumination, 10 days) of the same molecule?
The value was “no impact”.

What about the Labeled amount ([1]; 0 days) of the same molecule?
The Labeled amount was 99.56%.

What about the “Related substances Impurity A” value ([1]; 0 days) of the same molecule?
The value was 0.17%.

What about the “Related substances Impurity B” value ([1]; 0 days) of the same molecule?
The value was 0.36%.

And the “Related substances Impurity C” value ([1]; 0 days)?
Its value is 0.25%.

What about the “Related substances Impurity D” value ([1]; 0 days) of the same molecule?
Its value is 0.13%.

And the “Related substances Impurity E” value ([1]; 0 days)?
Its value is 0.15%.

And the “Related substances Impurity F” value ([1]; 0 days)?
Its value is 0.14%.

What about the “Related substances RRT0.73” value ([1]; 0 days) of the same molecule?
The value was 0.05%.

And the “Related substances RRT1.10” value ([1]; 0 days)?
The value was 0.04%.

What about the “Related substances RRT2.18” value ([1]; 0 days) of the same molecule?
The value was 0.03%.

And the “Related substances Total impurities” value ([1]; 0 days)?
The value was 1.32%.

And the Labeled amount [1, 8]?
Its Labeled amount is 99.42%.

And the “Related substances Impurity A” value [1, 8]?
The value was 0.17%.

What about the “Related substances Impurity B” value [1, 8] of the same molecule?
Its value is 0.36%.

And the “Related substances Impurity C” value [1, 8]?
Its value is 0.25%.

What about the “Related substances Impurity D” value [1, 8] of the same molecule?
The value was 0.13%.

What about the “Related substances Impurity E” value [1, 8] of the same molecule?
The value was 0.15%.

And the “Related substances Impurity F” value [1, 8]?
The value was 0.14%.

What about the “Related substances RRT0.73” value [1, 8] of the same molecule?
Its value is 0.05%.

What about the “Related substances RRT1.10” value [1, 8] of the same molecule?
Its value is 0.04%.

And the “Related substances RRT2.18” value [1, 8]?
The value was 0.03%.

And the “Related substances Total impurities” value [1, 8]?
Its value is 1.32%.

And the Labeled amount [1, 9]?
Its Labeled amount is 100.95%.

And the “Related substances Impurity A” value [1, 9]?
The value was 0.17%.

What about the “Related substances Impurity B” value [1, 9] of the same molecule?
Its value is 0.36%.

What about the “Related substances Impurity C” value [1, 9] of the same molecule?
Its value is 0.25%.

And the “Related substances Impurity D” value [1, 9]?
Its value is 0.13%.

And the “Related substances Impurity E” value [1, 9]?
Its value is 0.15%.

And the “Related substances Impurity F” value [1, 9]?
Its value is 0.14%.

What about the “Related substances RRT0.73” value [1, 9] of the same molecule?
The value was 0.05%.

And the “Related substances RRT1.10” value [1, 9]?
Its value is 0.04%.

And the “Related substances RRT2.18” value [1, 9]?
Its value is 0.03%.

What about the “Related substances Total impurities” value [1, 9] of the same molecule?
The value was 1.32%.

And the Labeled amount ([1]; Strong light for 10 days)?
The Labeled amount was 99.96%.

And the “Related substances Impurity A” value ([1]; Strong light for 10 days)?
The value was 0.17%.

What about the “Related substances Impurity B” value ([1]; Strong light for 10 days) of the same molecule?
Its value is 0.36%.

What about the “Related substances Impurity C” value ([1]; Strong light for 10 days) of the same molecule?
Its value is 0.25%.

What about the “Related substances Impurity D” value ([1]; Strong light for 10 days) of the same molecule?
The value was 0.13%.

What about the “Related substances Impurity E” value ([1]; Strong light for 10 days) of the same molecule?
Its value is 0.15%.

What about the “Related substances Impurity F” value ([1]; Strong light for 10 days) of the same molecule?
Its value is 0.14%.

What about the “Related substances RRT0.73” value ([1]; Strong light for 10 days) of the same molecule?
Its value is 0.05%.

And the “Related substances RRT1.10” value ([1]; Strong light for 10 days)?
Its value is 0.04%.

And the “Related substances RRT2.18” value ([1]; Strong light for 10 days)?
The value was 0.03%.

And the “Related substances Total impurities” value ([1]; Strong light for 10 days)?
Its value is 1.32%.

What about the “cell cycle arrest and apoptosis” value [2] of the same molecule?
Its value is “induce cell cycle arrest and apoptosis”.

And the Dissolution behavior ([3]; Ethanol concentration 50 %, sample concentration 24 mg/g)?
The Dissolution behavior was “Dissolved”.

And the Dissolution behavior ([3]; Ethanol concentration 66 %, sample concentration 32 mg/g)?
Its Dissolution behavior is “Dissolved”.

What about the Dissolution behavior ([3]; Ethanol concentration 75 %, sample concentration 40 mg/g) of the same molecule?
The Dissolution behavior was “Dissolved”.

And the Dissolution behavior ([3]; Ethanol concentration 100 %, sample concentration 50 mg/g)?
Its Dissolution behavior is “Dissolved”.

And the “systemic exposure, dose dependence” value ([4]; 0.008-0.06 mg/cm^2 dose range)?
The value was “No dose-dependent increase”.

And the “plasma drug concentrations above the LLOQ” value ([4]; four Australian subjects)?
The value was 0.021 to 0.101 ng/mL.

What about the “plasma drug concentrations above the LLOQ” value ([4]; seven Chinese subjects) of the same molecule?
Its value is 0.022 to 0.106 ng/mL.

What about the water solubility [5] of the same molecule?
Its water solubility is “about 70 µg/mL”.

What does the source list for `CO[C@H]1[C@H](O)[C@H](O[C@H]2CC[C@@]3(C)[C@H](CC[C@@H]4[C@@H]3CC[C@]3(C)[C@@H](C5=CC(=O)OC5)CC[C@]43O)C2)O[C@@H](C)[C@@H]1O` [neriifolin]?
progression of experimental autoimmune encephalomyelitis (EAE) [6]: ameliorate the progression; formation of LC3-associated phagosomes [7]: inhibit the formation of LC3-associated phagosomes
